From patent US8476197B2, “Aminopropenoates as fungicides” (priority 2009, dated 2013)
Marks after values point to notes of the source that are not given here.

Conditions: pH 2.3

| Compound | Log P |
| --- | --- |
| COC(=O)C(C#N)=C(NC(CO)C(N)=O)c1cccnc1Cl (centres unmarked) [Compound 570] | 0.97 |
| CCOC(=O)C(C#N)=C(Nc1ccccc1SC)c1ccc(C)nc1Cl [Compound 343] | 3.57 |
| CCOC(=O)C(C#N)=C(NC(C)C(C)C)c1cccnc1OC (centres unmarked) [Compound 961] | 3.52^[c]; 3.52^[b] |

Same assay, conditions: pH 2.7

| Log P | Compound |
| --- | --- |
| 3.37^[a] | CCOC(=O)C(C#N)=C(NC(C)(C)C#Cc1ccc(C#N)cc1)c1cn(C)nc1C(F)F [Compound 1090] |
| 3.92^[a] | CCOC(=O)C(C#N)=C(NC(C)COc1cccc(C(F)(F)F)c1)c1cn(C)nc1C(F)F (racemic) [Compound 1237] |
| 4.92^[a] | CCOC(=O)C(C#N)=C(NC1CCCCC1)c1cc(Cl)sc1Cl [Compound 1630] |
| 4.67^[a] | C=CCCCC(C=C)NC(=C(C#N)C(=O)OCC)c1sccc1Br (racemic) [Compound 1017] |
| 2.96^[a] | CCOC(=O)C(C#N)=C(NC1CCCC1OC)c1cccnc1Cl (centres unmarked) [Compound 1432] |
| 3^[a] | CCOC(=O)C(C#N)=C(Nc1cccc2oc(C)nc12)c1cccnc1Cl [Compound 1555] |
| 1.88^[a] | CON=C(C)NC(=O)C(C#N)=C(NC(C)C(C)C)c1cccnc1Cl (centres unmarked) [Compound 1619] |
| 4.65^[a] | C=CCCCC(C=C)NC(=C(C#N)C(=O)OCC)c1ccsc1I (centres unmarked) [Compound 1024] |
| 3.87^[a] | CCOC(=O)C(C#N)=C(NC(C)C(C)C)c1ccnc(Br)c1F (centres unmarked) [Compound 1315] |
| 3.37^[a] | COC(=O)C(C#N)=C(NC1CCC(C)CC1)c1cccnc1Cl (centres unmarked) [Compound 1076] |
| 2.1^[a] | CCOC(=O)C(C#N)=C(NC(C)C(=O)NC)c1ccnc(Cl)c1Cl (centres unmarked) [Compound 1387] |
| 3.15^[a] | CCN(OC)C(=O)C(C#N)=C(NC(C)C(C)C)c1cccnc1Cl (centres unmarked) [Compound 1514] |
| 4.26^[a] | CCOC(=O)C(C#N)=C(NC1CCC1)c1cc(Cl)sc1Cl [Compound 1581] |
| 3.04^[a] | COC(=O)C(C#N)=C(NC(C)(C)C#N)c1sc(C)nc1C(F)(F)F [Compound 1010] |
| 3.21^[a] | CCOC(=O)C(C#N)=C(NC(C)c1nc2c(s1)CCCC2)c1cccnc1Cl (racemic) [Compound 1548] |
| 3.39^[a] | CC#CC(C)NC(=C(C#N)C(=O)OCC)c1ccnc(Cl)c1F (centres unmarked) [Compound 1325] |
| 3.61^[a] | C#CC(C)(C)NC(=C(C#N)C(=O)OCC)c1sc(Cl)nc1Cl [Compound 1036] |
| 2.88^[a] | CCOC(=O)C(C#N)=C(NC1CCC1)c1ccnc2ccccc12 [Compound 1498] |
| 4.92^[a] | CCOC(=O)C(C#N)=C(NC(C)(C)C#Cc1ccc(C)cc1)c1sc(C)nc1C(F)(F)F [Compound 1098] |
| 2.57^[a] | CC#CC(C)(C)NC(=C(C#N)C(=O)OC)c1cccnc1Cl [Compound 1039] |

The next lines start with the compound.

| Compound | Log P |
| --- | --- |
| CCOC(=O)C(C#N)=C(NC(C)C1CC1)c1sc(Cl)nc1Cl (centres unmarked) [Compound 893] | 3.87^[a] |
| CCOC(=O)C(C#N)=C(NC(C)COCc1ccc(C(F)(F)F)cc1)c1cccnc1Cl (centres unmarked) [Compound 731] | 4.2^[a] |
| CCOC(=O)C(C#N)=C(NC(C#N)c1cnn(-c2ccccc2)c1)c1cn(C)nc1C(F)F (centres unmarked) [Compound 1232] | 3.15^[a] |
| COC(=O)C(C#N)=C(NC(C)C)c1cccnc1Cl [Compound 822] | 2.11^[a] |
| CCOC(=O)C(C#N)=C(NC1(c2c(F)cccc2F)CC1)c1cn(C)nc1C(F)F [Compound 559] | 3.17^[a] |
| CCOC(=O)C(C#N)=C(NC(C)c1nc(C(C)C)no1)c1cc(Cl)ncc1Cl (racemic) [Compound 253] | 2.2[a] |
| CCOC(=O)C(C#N)=C(NCc1nccs1)c1conc1C [Compound 76] | 2.04^[a] |
| CCNC(=O)C(C#N)=C(NC(C)c1nccs1)c1cn(C)nc1C(F)F (racemic) [Compound 1294] | 2.05^[a] |
| CC#CC(C)NC(=C(C#N)C(=O)OC)c1cccnc1Cl (centres unmarked) [Compound 1051] | 2.5^[a] |
| COC(=O)C(C#N)=C(NC(C)c1nc(C)c(C)s1)c1sc(C)nc1C(F)(F)F (racemic) [Compound 131] | 3.46^[a] |
| CCOC(=O)C(C#N)=C(NC(C)CF)c1ccncc1Cl (centres unmarked) [Compound 750] | 2.42^[a] |
| CCCCCCC(C)NC(=C(C#N)C(=O)OCC)c1cn(C)nc1C(F)F (racemic) [Compound 817] | 4.36^[a] |
| CCOC(=O)C(C#N)=C(NC(C)C(C)C)c1sc(C)nc1C(F)(F)F (centres unmarked) [Compound 949] | 3.95^[a] |
| CCOC(=O)C(C#N)=C(NC(C)c1nc(C)c(C)s1)c1c(C)nn(C)c1Cl (centres unmarked) [Compound 94] | 3.12^[a] |
| CCOC(=O)C(C#N)=C(NC(C)c1ccccn1)c1cn(C)nc1C(F)F (centres unmarked) [Compound 325] | 2.39^[a] |
| CCOC(=O)C(C#N)=C(NC(C)c1ccc(Cl)cc1)c1c(C)nn(C)c1Cl (centres unmarked) [Compound 367] | 3.8^[a] |
| COC(=O)C(C#N)=C(NC1CSC1)c1cccnc1Cl [Compound 122] | 2.08^[a] |

| Compound | Log P |
| --- | --- |
| CCOC(=O)C(C#N)=C(NC(C)c1ccccn1)c1cccnc1Cl (mixture of isomers) [Compound 292] | 2.5^[a] |
| CCOC(=O)C(C#N)=C(NC(C)C1CCCCC1)c1sccc1Br (centres unmarked) [Compound 875] | 5.11^[a] |
| CCOC(=O)C(C#N)=C(NC(C)C(=O)NC)c1c(C)nn(C)c1Cl (centres unmarked) [Compound 606] | 1.7^[a] |
| CCOC(=O)C(C#N)=C(NC1(c2c(F)cccc2F)CC1)c1cc(Cl)sc1Cl [Compound 501] | 4.62^[a] |
| CCOC(=O)C(C#N)=C(NC(C)COC)c1cn(C)nc1C(F)F (centres unmarked) [Compound 685] | 2.41^[a] |
| CCCCCC(C)NC(=C(C#N)C(=O)OCC)c1sccc1Br (centres unmarked) [Compound 844] | 5.03^[a] |
| CCOC(=O)C(C#N)=C(NC(C)(C)CC)c1cccnc1Cl [Compound 1425] | 3.23^[a] |
| CCOC(=O)C(C#N)=C(NC(C)c1nc(C)cs1)c1cn(C)nc1C(F)F (centres unmarked) [Compound 188] | 2.65^[a] |
| CC(C)C(C)NC(=C(C#N)C(=O)O)c1cccnc1Cl (centres unmarked) [Compound 956] | 2.2^[a] |
| CCOC(=O)C(C#N)=C(NC(C)CSc1ccc(Cl)c(Cl)c1)c1cccnc1Cl (centres unmarked) [Compound 1158] | 4.41^[a] |
| COC(=O)C(C#N)=C(NCc1ccccc1SC)c1sc(C)nc1C(F)(F)F [Compound 466] | 3.55^[a] |
| CCOC(=O)C(C#N)=C(NC(C)c1cccs1)c1sc(C)nc1C(F)(F)F (centres unmarked) [Compound 212] | 3.8^[a] |
| CCOC(=O)C(C#N)=C(NC(c1ccccc1)C(F)(F)F)c1cn(C)nc1C(F)F (centres unmarked) [Compound 1224] | 3.55^[a] |
| COC(=O)C(C#N)=C(NC(c1ccc(Cl)cc1)C1CC1)c1cccnc1Cl (centres unmarked) [Compound 381] | 3.58^[a] |
| CCOC(=O)C(C#N)=C(NC(C)c1cccs1)c1sccc1C(F)(F)F (centres unmarked) [Compound 209] | 3.99^[a] |
| CCOC(=O)C(C#N)=C(NC(C)C(=O)OCC)c1sccc1C(F)(F)F (racemic) [Compound 656] | 3.44^[a] |
| CCOC(=O)C(C#N)=C(NC(C)c1ncc(C)s1)c1sccc1Br (racemic) [Compound 169] | 3.46^[a] |

Same assay, conditions: pH 7.5

| Log P | Compound |
| --- | --- |
| 0.79 | COC(=O)C(C#N)=C(NC(CO)C(N)=O)c1cccnc1Cl (centres unmarked) [Compound 570] |
| 1.94 | CONC(=O)C(C#N)=C(NC(C)c1nccs1)c1ccc(Cl)nc1Cl (centres unmarked) [Compound 1459] |
| 3.76 | COC(=O)C(C#N)=C(N[C@H](C)C1CCCCC1)c1cccnc1Cl [Compound 871] |

| Compound | Log P |
| --- | --- |
| CCOC(=O)C(C#N)=C(Nc1ccccc1SC)c1ccc(C)nc1Cl [Compound 343] | 3.41 |
| CCOC(=O)C(C#N)=C(NC(C)C(C)C)c1cccnc1OC (centres unmarked) [Compound 961] | 3.52^[c]; 3.52^[b] |
